Tests used:
[1] = logP by HPLC on reversed phase columns (EEC directive 79/831 Annex V.A8); format: physicochemical; settings: for logP: method [a]: LC-MS at pH 2.7, 0.1% formic acid in water / acetonitrile, compounds of formula (I), Table 1; for chromatographic logP: pH 2.7
Alternaria brassicae = experiment: In vivo preventive test on Alternaria brassicae (leaf spot on radish); settings: 500 ppm, radish plants sprayed 24 h before contamination, graded 6 days after contamination
Experimental: Radish plants (“Pernod Clair” variety), sown in starter cups on a 50/50 peat soil-pozzolana substrate and grown at 17° C., are treated at the cotyledon stage by spraying with the active ingredient prepared as described above. Plants, used as controls, are treated with the mixture of acetone/tween/DMSO/water not containing the active material. After 24 hours, the plants are contaminated by spraying the cotyledons with an aqueous suspension of Alternaria brassicae spores (50 000 spores per ml). The spores are collected from a 15-day-old culture. The contaminated radish plants are incubated at 20° C. and at 100% relative humidity. Grading (% of efficacy) is carried out 6 days after the contamination, in comparison with the control plants.

Pyrenophora teres = experiment: In vivo preventive test on Pyrenophora teres (net blotch on barley); settings: graded 14 days after contamination; for Efficacy: comparison with prior-art compound
Experimental: Barley plants (“Plaisant” variety), sown in starter cups on a 50/50 peat soil-pozzolana substrate and grown at 22° C., are treated at the 1-leaf stage (10 cm height) by spraying with the active ingredient prepared as described above. Plants, used as controls, are treated with the mixture of acetone/tween/DMSO/water not containing the active material. After 24 hours, the plants are contaminated by spraying the leaves with an aqueous suspension of Pyrenophora teres spores (12 000 spores per ml). The spores are collected from a 12-day-old culture. […] Grading (% of efficacy) is carried out 14 days after the contamination, in comparison with the control plants.

Puccinia recondita = experiment: In vivo preventive test on Puccinia recondita (brown rust on wheat); settings: graded 12 days after contamination
Experimental: Wheat plants (“Scipion” variety), sown in starter cups on a 50/50 peat soil-pozzolana substrate and grown at 22° C., are treated at the 1-leaf stage (10 cm height) by spraying with the active ingredient prepared as described above. Plants, used as controls, are treated with the mixture of acetone/tween/DMSO/water not containing the active material. After 24 hours, the plants are contaminated by spraying the leaves with an aqueous suspension of Puccinia recondita spores (100 000 spores per ml). The spores are collected from an infected plant and are suspended in water to containing 2.5 ml/l of Tween 80 at 10%. […] Grading (% of efficacy) is carried out 12 days after the contamination, in comparison with the control plants.

Sphaerotheca fuliginea = experiment: In vivo preventive test on Sphaerotheca fuliginea (powdery mildew on cucurbits); settings: graded 12 days after contamination
Experimental: Gherkin plants (“Vert petit de Paris” variety), sown in starter cups on a 50/50 peat soil-pozzolana substrate and grown at 24° C., are treated at the Z11 cotyledon stage by spraying with the active ingredient prepared as described above. Plants, used as controls, are treated with the mixture of acetone/tween/DMSO/water not containing the active material. After 24 hours, the plants are contaminated by spraying the cotyledons with an aqueous suspension of Sphaerotheca fuliginea spores (100 000 spores per ml). The spores are collected from infected plants. […] Grading (% of efficacy) is carried out 12 days after the contamination, in comparison with the control plants.

Uromyces appendiculatus = experiment: In vivo preventive test on Uromyces appendiculatus (bean rust); settings: bean plants
Experimental: Bean plants (“Saxa” variety), sown in starter cups on a 50/50 peat soil-pozzolana substrate and grown at 24° C., are treated at the 2-leaf stage (9 cm height) by spraying with the active ingredient prepared as described above. Plants, used as controls, are treated with the mixture of acetone/tween/DMSO/water not containing the active material. After 24 hours, the plants are contaminated by spraying the leaves with an aqueous suspension of Uromyces appendiculatus spores (150 000 spores per ml). The spores are collected from infected plants and are suspended in water containing 2.5 ml/1 of Tween 80 at 10%. […] Grading (% of efficacy) is carried out 11 days after the contamination, in comparison with the control plants.

Botrytis cinerea = experiment: In vivo preventive test on Botrytis cinerea (grey mould); settings: 500 ppm, gherkin plants sprayed 24 h before contamination, graded 4 to 5 days after contamination
Experimental: Gherkin plants (“Vert petit de Paris” variety), sown in starter cups on a 50/50 peat soil-pozzolana substrate and grown at 24° C., are treated at the Z11 cotyledon stage by spraying with the active ingredient prepared as described above. Plants, used as controls, are treated with the mixture of acetone/tween/DMSO/water not containing the active material. After 24 hours, the plants are contaminated by spraying the cotyledons with an aqueous suspension of cryopreserved Botrytis cinerea spores (50 000 spores per ml). The spores are suspended in a nutrient solution composed of 10 g/L of PDB, 50 g/L of D-Fructose, 2 g/L of NH4NO3 and 1 g/L of KH2PO4. The contaminated gherkin plants are incubated at 17° C. and at 90% relative humidity.

Septoria tritici = experiment: In vivo preventive test on Septoria tritici (leaf spot on wheat); settings: 500 ppm, wheat plants sprayed 24 h before contamination, graded 24 days after contamination
Experimental: Wheat plants (“Scipion” variety), sown in starter cups on a 50/50 peat soil-pozzolana substrate and grown at 22° C., are treated at the 1-leaf stage (10 cm height) by spraying with the active ingredient prepared as described above. Plants, used as controls, are treated with the mixture of acetone/tween/DMSO/water not containing the active material. After 24 hours, the plants are contaminated by spraying the leaves with an aqueous suspension of cryopreserved Septoria tritici spores (500 000 spores per ml). The contaminated wheat plants are incubated for 72 hours at 18° C. and at 100% relative humidity, and then for 21 days at 90% relative humidity. Grading (% of efficacy) is carried out 24 days after the contamination, in comparison with the control plants.

Pyricularia oryzae = format: in vivo; settings: 500 ppm, rice plants sprayed 24 h before contamination, graded 6 days after contamination
[2] = 500 ppm, barley plants sprayed 24 h before contamination
[3] = 500 ppm, wheat plants sprayed 24 h before contamination
[4] = 500 ppm, gherkin plants sprayed 24 h before contamination
[5] = preventive, dose of 500 ppm, grading 11 days after contamination
[6] = 100 ppm, graded 11 days after contamination

Structure (SMILES) | logP [1] | Eff. % (Alternaria brassicae) | Eff. % (Pyrenophora teres; [2]) | Eff. % (Puccinia recondita; [3]) | Eff. % (Sphaerotheca fuliginea; [4]) | Eff. % (Uromyces appendiculatus; [5]) | Eff. % (Pyrenophora teres; 100 ppm, barley plants) | Eff. % (Puccinia recondita; 100 ppm, wheat plants) | Eff. % (Sphaerotheca fuliginea; 100 ppm, gherkin plants) | Eff. % (Uromyces appendiculatus; [6]) | Eff. % (Botrytis cinerea) | Eff. % (Septoria tritici) | Efficacy (Pyrenophora teres; 100 ppm, barley plants) | Eff. % (Pyricularia oryzae) | chromatographic logP [1]
CC(C)C1Cc2c(NC(=O)c3c(C(F)(F)F)nn(C)c3F)cccc2C1(C)C (racemic) [Example 66] | 4.82[a] | 79% | 83% | 98% | 98% | 100% |  |  |  |  |  |  |  |  | 
Cc1nn(C)c(Cl)c1C(=O)Nc1cccc2c1CC(C(C)C)C2(C)C (racemic) [Example 69] | 4.76[a] |  | 75% | 88% | 72% | 100% |  |  |  |  |  |  |  |  | 
CC(C)C1Cc2c(NC(=S)c3cn(C)nc3C(F)(F)F)cccc2C1(C)C (racemic) [Example 86] | 4.78[a] |  |  |  |  |  | 100% | 100% | 100% | 100% |  |  |  |  | 
CC(C)C1Cc2cccc(NC(=O)c3cn(C)nc3C(F)F)c2C1 (stereo not shown) [Example 3] |  | 92% | 97% | 94% | 100% | 100% |  |  |  |  | 85% | 96% |  |  | 
Cc1nn(C)c(F)c1C(=O)Nc1cccc2c1CC(C)C2(C)C (stereo not shown) [Example 8] | 3.52[a] | 79% |  | 100% |  | 100% |  |  |  |  |  |  | 83% | 83% | 
CC1c2cccc(NC(=O)c3cn(C)nc3C(F)F)c2CC12CCCC2 (stereo not shown) [Example 10, 3-(difluoromethyl)-1-methyl-N-(1′-methyl-1′,3′-dihydrospiro[cyclopentane-1,2′-inden]-4′-yl)-1H-pyrazole-4-carboxamide] |  | 93% | 83% | 97% | 100% | 100% |  |  |  |  |  | 100% |  |  | 3.96
Cc1nn(C)c(C)c1C(=O)Nc1cccc2c1CC(C)(C)C2C (stereo not shown) [Example 13] | 3.13[a] | 93% | 75% | 100% |  | 100% |  |  |  |  |  |  |  | 83% | 
Cc1nn(C)c(C)c1C(=O)Nc1cccc2c1C(C)C(C)C2(C)C (stereo not shown) [Example 16] | 3.15[a] |  |  | 98% |  | 100% |  |  |  |  | 100% |  |  |  | 
CC1Cc2c(NC(=O)c3cnn(C)c3C(F)(F)F)cccc2C1(C)C (stereo not shown) [Example 17] | 3.73[a] |  |  | 98% |  | 100% |  |  |  |  | 94% |  |  |  | 
CCc1c(C(=O)Nc2cccc3c2CC(C)C3(C)C)cnn1C (stereo not shown) [Example 20] | 3.37[a] | 97% | 100% |  |  |  |  |  |  |  |  | 97% |  |  | 
Cn1cc(C(=O)Nc2cccc3c2CC2CCCCC32)c(C(F)F)n1 (stereo not shown) [Example 24] | 3.81[a] |  | 86% | 89% |  | 100% |  |  |  |  |  |  |  |  | 
Cn1cc(C(=O)Nc2cccc3c2CC2(CCCC2)C3)c(C(F)F)n1 [Example 25] | 3.74[a] | 71% | 71% | 94% | 95% | 100% |  |  |  |  |  |  |  |  | 
CCC1Cc2cccc(NC(=O)c3cn(C)nc3C(F)F)c2C1 (stereo not shown) [Example 27] | 3.35[a] | 79% | 97% | 100% | 100% | 100% |  |  |  |  |  | 100% |  |  | 
CC1Cc2c(NC(=S)c3cn(C)nc3C(F)F)cccc2C1(C)C (stereo not shown) [Example 28] | 3.85[a] |  |  |  | 100% | 100% |  |  |  |  |  | 83% |  | 93% | 
CC1c2c(NC(=O)c3cn(C)nc3C(F)(F)F)cccc2C(C)(C)C1C (stereo not shown) [Example 31] | 3.76[a] | 80% |  | 94% | 72% | 100% |  |  |  |  |  | 79% |  |  | 
Cc1nn(C)c(F)c1C(=O)Nc1cccc2c1C(C)C(C)C2(C)C (stereo not shown) [Example 33] | 3.52[a] | 92% | 97% | 98% | 100% | 100% |  |  |  |  | 100% | 97% | at least 80% |  | 
CCC1Cc2c(NC(=O)c3cn(C)nc3C(F)F)cccc2C1(C)C (stereo not shown) [Example 36] | 3.96[a] |  | 75% | 98% | 100% | 100% |  |  |  |  |  | 86% |  |  | 
CCC1Cc2c(NC(=O)c3c(C)nn(C)c3F)cccc2C1(C)C (stereo not shown) [Example 37] | 3.99[a] | 90% | 83% | 100% | 100% | 100% |  |  |  |  |  | 71% |  |  | 
CC(C)C1Cc2c(NC(=O)c3cn(C)nc3C(F)F)cccc2C1(C)C (stereo not shown) [Example 39] | 4.27[a] | 98% |  | 98% | 100% | 100% |  |  |  |  |  | 71% |  |  | 
CC(C)C1Cc2c(NC(=O)c3cn(C)nc3C(F)(F)F)cccc2C1(C)C (stereo not shown) [Example 40] | 4.46[a] | 89% |  | 98% | 100% | 100% |  |  |  |  |  | 93% |  |  | 
Cc1nn(C)c(F)c1C(=O)Nc1cccc2c1CC(C(C)C)C2(C)C (stereo not shown) [Example 41] | 4.34[a] | 78% |  | 100% | 100% | 100% |  |  |  |  |  | 71% |  |  | 
CC(C)C1Cc2c(NC(=S)c3cn(C)nc3C(F)F)cccc2C1(C)C (stereo not shown) [Example 77, 3-(difluoromethyl)-N-(2-isopropyl-1,1-dimethyl-2,3-dihydro-1H-inden-4-yl)-1-methyl-1H-pyrazole-4-carbothioamide] |  |  |  |  |  |  | 100% | 100% | 100% | 100% |  |  |  |  | 4.54

From US9249104B2, “Pyrazole indanyl carboxamides” (BAYER CROPSCIENCE AG, priority 2012, dated 2016)
